According to US9371336B2, “Compounds for treating spinal muscular atrophy” (PTC Therapeutics Inc., priority 2012, dated 2016):

Key:
Smn protein = Smn protein assay (HTRF) in cultured cells (SMA patient fibroblasts GM03813); format: cell-based, human; settings: 48 hours; for maximum fold (Fold) increase of Smn protein: SMA patient fibroblast cells, 7-point concentration curve, relative to vehicle control; for EC1.5x for Smn protein expression: SMA patient fibroblast cells (GM03813), HTRF, 7-point concentration data, concentration producing 1.5 times Smn protein vs DMSO vehicle control
Procedure, shortened: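 Smn level is expressed as fold over vehicle, from blank-corrected ΔF of the 665/620 nm HTRF ratio. Readout used anti-SMN d2 and kryptate antibodies on RIPA lysates. GM03813 SMA fibroblasts had 48 h exposure at 37° C to seven 3.16-fold compound dilutions, run in triplicate.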

[1] = tested on: SMN2 minigene mRNA (SMN2-A minigene construct); assay: SMN2 minigene mRNA splicing RT-qPCR assay in cultured cells; format: cell-based, human; settings: Homo sapiens, HEK293-H; HEK293H cells stably transfected with SMN2-A minigene, 24 hours, 7-point concentration data; concentration giving 1.5-fold SMN2 full length mRNA relative to vehicle-treated cells; read-out: EC1.5x for production of full length SMN2 mRNA
Procedure, shortened: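 Full-length SMN2 minigene mRNA, measured by exon 7/luciferase-specific RT-qPCR that excludes endogenous SMN1/SMN2, was normalized to GAPDH and expressed relative to vehicle-treated cells via modified ΔΔCt. Stably transfected HEK293H cells received compound (7-point, 3.16-fold series, duplicates) for 24 h at 37 °C.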

SMILES | maximum fold (Fold) increase of Smn protein (Smn protein) | melting point [°C] | EC (1.5-fold) [1] [µM] | EC1.5x for Smn protein expression (Smn protein)
Cl.O=c1oc2cc(N3CCNCC3)ncc2cc1-c1cn2ccccc2n1 [Cpd 42, 3-(imidazo[1,2-a]pyridin-2-yl)-7-(piperazin-1-yl)-2H-pyrano[3,2-c]pyridin-2-one hydrochloride] | ** (a fold increase between >1.2 and ≦1.35 is indicated by two stars (**)) | 278 to 284 | 3 to 30 | 
Cl.O=c1oc2nc(N3CCCNCC3)ccc2cc1-c1cn2ccccc2n1 [Cpd 45, 7-(1,4-diazepan-1-yl)-3-(imidazo[1,2-a]pyridin-2-yl)-2H-pyrano[2,3-b]pyridin-2-one hydrochloride] | **** (a fold increase between >1.5 and ≦1.65 is indicated by four stars (****)) | 265 to 267 | 0.1 to 0.3 | *** (an EC1.5× between >0.3 μM and ≦1 μM is indicated by three stars (***))
Cl.O=c1oc2nc(N3CCCNCC3)ccc2cc1-c1cn2cccc(F)c2n1 [Cpd 46, 7-(1,4-diazepan-1-yl)-3-(8-fluoroimidazo[1,2-a]pyridin-2-yl)-2H-pyrano[2,3-b]pyridin-2-one hydrochloride] | **** (a fold increase between >1.5 and ≦1.65 is indicated by four stars (****)) | 267 to 269 | ≤ 0.1 | **** (an EC1.5×≦0.3 μM is indicated by four stars (****))
Cl.O=c1oc2nc(N3CCCNCC3)ccc2cc1-c1cn2cccc(Cl)c2n1 [Cpd 47, 3-(8-chloroimidazo[1,2-a]pyridin-2-yl)-7-(1,4-diazepan-1-yl)-2H-pyrano[2,3-b]pyridin-2-one hydrochloride] | ***** (a fold increase >1.65 is indicated by five stars (*****)) | 252 to 255 | ≤ 0.1 | **** (an EC1.5×≦0.3 μM is indicated by four stars (****))
CN1CCCN(c2ccc3cc(-c4cn5ccccc5n4)c(=O)oc3n2)CC1 [Cpd 48, 3-(imidazo[1,2-a]pyridin-2-yl)-7-(4-methyl-1,4-diazepan-1-yl)-2H-pyrano[2,3-b]pyridin-2-one] | **** (a fold increase between >1.5 and ≦1.65 is indicated by four stars (****)) | 271 to 274 | 0.1 to 0.3 | *** (an EC1.5× between >0.3 μM and ≦1 μM is indicated by three stars (***))
CN1CCCN(c2ccc3cc(-c4cn5cccc(F)c5n4)c(=O)oc3n2)CC1 [Cpd 49, 3-(8-fluoroimidazo[1,2-a]pyridin-2-yl)-7-(4-methyl-1,4-diazepan-1-yl)-2H-pyrano[2,3-b]pyridin-2-one] | **** (a fold increase between >1.5 and ≦1.65 is indicated by four stars (****)) | 269 to 272 | ≤ 0.1 | *** (an EC1.5× between >0.3 μM and ≦1 μM is indicated by three stars (***))
CN1CCCN(c2ccc3cc(-c4cn5cccc(Cl)c5n4)c(=O)oc3n2)CC1 [Cpd 50, 3-(8-chloroimidazo[1,2-a]pyridin-2-yl)-7-(4-methyl-1,4-diazepan-1-yl)-2H-pyrano[2,3-b]pyridin-2-one] | ***** (a fold increase >1.65 is indicated by five stars (*****)) | 245 to 246 | ≤ 0.1 | **** (an EC1.5×≦0.3 μM is indicated by four stars (****))
Cl.O=c1oc2nc(N3CCCNCC3)ccc2cc1-c1nc2ccccc2s1 [Cpd 51, 3-(1,3-benzothiazol-2-yl)-7-(1,4-diazepan-1-yl)-2H-pyrano[2,3-b]pyridin-2-one hydrochloride] | ** (a fold increase between >1.2 and ≦1.35 is indicated by two stars (**)) | 284 to 286 | 0.3 to 1 | 
Cl.O=c1oc2nc(N3CCCNCC3)ccc2cc1-c1nc2ccccc2o1 [Cpd 52, 3-(1,3-benzoxazol-2-yl)-7-(1,4-diazepan-1-yl)-2H-pyrano[2,3-b]pyridin-2-one hydrochloride] | * (A maximum fold increase ≦1.2 is indicated by one star (*)) | 243 to 245 | 3 to 30 | 
Cc1ccn2nc(-c3cc4ccc(N5CCN(C)CC5)nc4oc3=O)cc2c1 [Cpd 53, 7-(4-methylpiperazin-1-yl)-3-(5-methylpyrazolo[1,5-a]pyridin-2-yl)-2H-pyrano[2,3-b]pyridin-2-one] | *** (a fold increase between >1.35 and ≦1.5 is indicated by three stars (***)) | 264 to 268 | 0.1 to 0.3 | 
CN1CCN(c2ccc3cc(-c4cn5ccsc5n4)c(=O)oc3n2)CC1 [Cpd 54, 3-(imidazo[2,1-b][1,3]thiazol-6-yl)-7-(4-methylpiperazin-1-yl)-2H-pyrano[2,3-b]pyridin-2-one] | **** (a fold increase between >1.5 and ≦1.65 is indicated by four stars (****)) | 268 to 272 | 0.1 to 0.3 | *** (an EC1.5× between >0.3 μM and ≦1 μM is indicated by three stars (***))
Cc1cn2cc(-c3cc4cnc(N5CCN(C)CC5)cc4oc3=O)nc2s1 [Cpd 55, 3-(2-methylimidazo[2,1-b][1,3]thiazol-6-yl)-7-(4-methylpiperazin-1-yl)-2H-pyrano[3,2-c]pyridin-2-one] | *** (a fold increase between >1.35 and ≦1.5 is indicated by three stars (***)) | 282 to 286 | 1 to 3 | ** (an EC1.5× between >1 and ≦3 μM is indicated by two stars (**))
CN1CCCN(c2ccc3cc(-c4nc5ccccc5s4)c(=O)oc3n2)CC1 [Cpd 56, 3-(1,3-benzothiazol-2-yl)-7-(4-methyl-1,4-diazepan-1-yl)-2H-pyrano[2,3-b]pyridin-2-one] | ** (a fold increase between >1.2 and ≦1.35 is indicated by two stars (**)) | 274 to 276 | 0.1 to 0.3 | * (An EC1.5× for Smn protein expression between >3 μM and ≦10 μM is indicated by one star (*))
C[C@@H]1CN(c2ccc3cc(-c4cn5ccccc5n4)c(=O)oc3n2)C[C@H](C)N1 [Cpd 60, 7-[(3R,5S)-3,5-dimethylpiperazin-1-yl]-3-(imidazo[1,2-a]pyridin-2-yl)-2H-pyrano[2,3-b]pyridin-2-one] | *** (a fold increase between >1.35 and ≦1.5 is indicated by three stars (***)) | 283 to 285 | ≤ 0.1 | ** (an EC1.5× between >1 and ≦3 μM is indicated by two stars (**))
Cc1ccn2cc(-c3cc4ccc(N5CCN(C)[C@@H](C)C5)nc4oc3=O)nc2c1 [Cpd 61, 7-[(3S)-3,4-dimethylpiperazin-1-yl]-3-(7-methylimidazo[1,2-a]pyridin-2-yl)-2H-pyrano[2,3-b]pyridin-2-one] | **** (a fold increase between >1.5 and ≦1.65 is indicated by four stars (****)) | 246 to 250 | ≤ 0.1 | **** (an EC1.5×≦0.3 μM is indicated by four stars (****))
Cc1ccn2cc(-c3cc4ccc(N5CCN(C)C[C@@H]5C)nc4oc3=O)nc2c1 [Cpd 62, 7-[(2S)-2,4-dimethylpiperazin-1-yl]-3-(7-methylimidazo[1,2-a]pyridin-2-yl)-2H-pyrano[2,3-b]pyridin-2-one] | **** (a fold increase between >1.5 and ≦1.65 is indicated by four stars (****)) | 242 to 246 | ≤ 0.1 | **** (an EC1.5×≦0.3 μM is indicated by four stars (****))
Cc1ccn2cc(-c3cc4ccc(N5CCCNCC5)nc4oc3=O)nc2c1 [Cpd 65, 7-(1,4-diazepan-1-yl)-3-(7-methylimidazo[1,2-a]pyridin-2-yl)-2H-pyrano[2,3-b]pyridin-2-one] | **** (a fold increase between >1.5 and ≦1.65 is indicated by four stars (****)) | 239 to 241 | 0.3 to 1 | **** (an EC1.5×≦0.3 μM is indicated by four stars (****))
Cc1ccc2nc(-c3cc4ccc(N5CCCNCC5)nc4oc3=O)cn2c1 [Cpd 66, 7-(1,4-diazepan-1-yl)-3-(6-methylimidazo[1,2-a]pyridin-2-yl)-2H-pyrano[2,3-b]pyridin-2-one] | *** (a fold increase between >1.35 and ≦1.5 is indicated by three stars (***)) | 240 to 243 | 0.1 to 0.3 | ** (an EC1.5× between >1 and ≦3 μM is indicated by two stars (**))
Cc1ccc2nc(-c3cc4ccc(N5C[C@@H](C)N[C@@H](C)C5)nc4oc3=O)cn2c1 [Cpd 67, 7-[(3R,5S)-3,5-dimethylpiperazin-1-yl]-3-(6-methylimidazo[1,2-a]pyridin-2-yl)-2H-pyrano[2,3-b]pyridin-2-one] | **** (a fold increase between >1.5 and ≦1.65 is indicated by four stars (****)) | 248 to 251 | ≤ 0.1 | *** (an EC1.5× between >0.3 μM and ≦1 μM is indicated by three stars (***))
